Km data for one compound are collected here from article PMC9080259, “Dual-cycle immobilization to reuse both enzyme and support by reblossoming enzyme–inorganic hybrid nanoflowers” (RSC Advances, 2018).

As a reminder, the Km is the substrate concentration at which the rate is half of its maximum.

The structures appear in SMILES notation. Counter-ions that a name gives are not always drawn.

For this experiment, the system named is T1, Bromelain.
T1 construct: commercial native preparation
The experiment in a line: absorbance at […] nm, hydrolysis. It counts as biochemical. Particulars: free enzyme; 37 °C; pH not told; substrate of the kinetics taken from the activity assay.

For the compound `CCOC(=O)[C@H](CCCN=C(N)N)NC(=O)c1ccccc1` [N-Benzoyl-L-arginine ethyl ester hydrochloride], the Km worked out at 930 ± 40 µM.
